Measured values as given in patent publication US7884127B2, “Inhibitors of cyclin dependent kinases and their use” (Pirimal Life Sciences Ltd., priority 2002, dated 2011).
Where a name gives a salt, the structure may show the parent alone.

Experiments:
[1] = system: HeLa Cervix; assay: Cytotoxicity assay (MTS), HeLa; assay type: cell-based, human
Procedure: (§1) In Vitro Cell Proliferation and Cytotoxicity Assays:
(§2) Exponentially growing cultures of ten human cancerous cell lines (HL-60 Promyelocytic Leukemia, PC-3 Prostate, H-460 Lung, MDA-MB-231 Breast, MCF-7 Breast, HeLa Cervix, Colo-205 Colon, H9 Lymphoma (T Cells), U-937 Histiocytic Lymphoma (monocytes) and CaCO-2 Colon) obtained from NCCS, Pune, India were used. The in vitro cell proliferation (NCI, USA protocol) and cytotoxicity assays were carried out using standard procedures viz. ^3H-Thymidine uptake and MTS assay, respectively (For ^3H-Thymidine uptake: Cell Biology, A Laboratory Handbook, 1998, Vol 1 Ed Julio E. Celis, and For MTS assay: Promega Protocol, USA, 2000). In the ^3H-Thymidine uptake assay, cells were harvested after 72 hours onto GF/B unifilter plates (Packard, USA) using a Packard Filtermate Universal harvester and the plates were counted on a Packard TopCount 96-well liquid scintillation counter. The concentration of compound at which 50% of proliferative activity was inhibited (IC50) and the degree of toxicity of compound were calculated for representative compounds and their pharmaceutically acceptable salts described in the Examples.

[2] = system: MDAMB-231 Breast; assay: Cytotoxicity assay (MTS), MDA-MB-231; assay type: cell-based, human
Procedure: as §1, §2

[3] = system: HeLa Cervix; assay: In vitro cell proliferation assay (3H-Thymidine uptake), HeLa; assay type: cell-based; details: Homo sapiens, 72 hours
Procedure: as §1, §2

[4] = system: PC-3 Prostate; assay: In vitro cell proliferation assay (3H-Thymidine uptake), PC-3; assay type: cell-based; details: Homo sapiens, 72 hours
Procedure: as §1, §2

[5] = system: U-937 Histiocytic lymphoma (monocytes); assay: Cytotoxicity assay (MTS), U-937; assay type: cell-based, human
Procedure: as §1, §2

[6] = system: MCF-7 Breast; assay: Cytotoxicity assay (MTS), MCF-7; assay type: cell-based, human
Procedure: as §1, §2

[7] = system: H460 Lung; assay: In vitro cell proliferation assay (3H-Thymidine uptake), H460; assay type: cell-based; details: Homo sapiens, NCI-H460, 72 hours
Procedure: as §1, §2

[8] = system: MCF-7 Breast; assay: In vitro cell proliferation assay (3H-Thymidine uptake), MCF-7; assay type: cell-based; details: Homo sapiens, MCF7, 72 hours
Procedure: as §1, §2

[9] = system: PC-3 Prostate; assay: Cytotoxicity assay (MTS), PC-3; assay type: cell-based, human
Procedure: as §1, §2

[10] = system: U-937 Histiocytic lymphoma (monocytes); assay: In vitro cell proliferation assay (3H-Thymidine uptake), U-937; assay type: cell-based; details: Homo sapiens, 72 hours
Procedure: as §1, §2

[11] = system: H460 Lung; assay: Cytotoxicity assay (MTS), H460; assay type: cell-based, human
Procedure: as §1, §2

[12] = system: MDAMB-231 Breast; assay: In vitro cell proliferation assay (3H-Thymidine uptake), MDA-MB-231; assay type: cell-based; details: Homo sapiens, 72 hours
Procedure: as §1, §2

[13] = target: T1, human Cdk-2/E (Homo sapiens, UniProt P24941); assay: Cdk2/Cyclin E kinase assay; assay type: biochemical; details: phosphorylation of GST-Rb, 32P-ATP filter plate, 30 min at 30° C.
T1 construct: made in house; host or cells: Sf9 insect cells (baculovirus)
Description: (§3) Cdk4/Cyclin D1 Kinase Assay and Cdk2/Cyclin E Kinase Assay
(§4) The assays measure phosphorylation of retinoblastoma protein (Rb) by Cdk4 or Cdk2 upon activation by cyclin D1 or cyclin E, respectively, through the transfer of (γ^32P)-phosphate from γ^32P-ATP in a 96-well filter plate assay.
Cdk4 or Cdk2 was co-expressed with cyclin D1 or cyclin E, respectively, by a baculovirus expression system in insect cells. For this, 1×10^7 Sf9 cells were coinfected with baculoviruses containing human Cdk-4 or 2 and cyclin D1 or E genes and after 72 hours cells were lysed in 500 μl of a lysis buffer (50 mM HEPES (pH 7.5), 10 mM MgCl2, 1 mM DTT, 5 μg/ml of aprotinin, 5 μg/ml of leupeptin, 0.1 mM NaF, 0.2 mM phenylmethylsulfonyl fluoride (PMSF), and sodium orthovanadate). Centrifuged lysate was purified on a GST-sepharose column. Purity of the proteins was checked by SDS-PAGE followed by western blots using specific antibodies (Santacruz Biotec, USA) to Cdk4 or Cdk2. […]
(§5) Quantitation was by scintillation detection of (^32P)-GST-Rb in 96-well filter plates using Top Count scintillation 96-well counter (Packard, USA).
The Cdk 4 or Cdk 2 enzyme assay was run in 96-well format using Millipore Multiscreen filtration plates. […] The plate was counted in a Packard Top Count Scintillation Counter for 10 min. […]

[14] = target: T2, human Cdk-4/D1 (Homo sapiens, UniProt P11802); assay: Cdk4/Cyclin D1 kinase assay; assay type: biochemical; details: for IC50: phosphorylation of GST-Rb, 32P-ATP filter plate, 30 min at 30° C.; for Ratio of IC50 Cdk2/E:Cdk4/D1: selectivity, Cdk2/E IC50 over Cdk4/D1 IC50
T2 construct: made in house; host or cells: Sf9 insect cells (baculovirus)
T2 sequence (P11802 whole entry): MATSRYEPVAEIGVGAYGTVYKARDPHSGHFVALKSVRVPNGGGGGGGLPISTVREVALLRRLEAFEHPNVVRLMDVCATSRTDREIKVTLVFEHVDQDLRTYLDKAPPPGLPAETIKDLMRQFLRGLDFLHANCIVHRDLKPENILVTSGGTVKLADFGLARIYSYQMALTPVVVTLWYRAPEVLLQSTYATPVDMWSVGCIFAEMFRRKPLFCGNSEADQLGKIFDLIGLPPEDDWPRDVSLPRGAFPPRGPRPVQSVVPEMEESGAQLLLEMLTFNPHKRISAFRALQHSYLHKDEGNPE
T2 sequence (P24385 whole entry partner): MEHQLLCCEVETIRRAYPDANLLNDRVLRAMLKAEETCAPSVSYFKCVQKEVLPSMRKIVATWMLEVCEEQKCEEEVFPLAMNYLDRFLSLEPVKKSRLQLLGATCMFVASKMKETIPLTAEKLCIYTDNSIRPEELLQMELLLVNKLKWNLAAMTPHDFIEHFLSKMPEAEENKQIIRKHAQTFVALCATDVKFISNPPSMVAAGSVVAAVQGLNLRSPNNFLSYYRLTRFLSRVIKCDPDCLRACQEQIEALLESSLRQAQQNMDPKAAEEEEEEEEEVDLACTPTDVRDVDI
Description: as §3, §4
Cdk4 or Cdk2 was co-expressed with cyclin D1 or cyclin E, respectively, by a baculovirus expression system in insect cells. For this, 1×10^7 Sf9 cells were coinfected with baculoviruses containing human Cdk-4 or 2 and cyclin D1 or E genes and after 72 hours cells were lysed in 500 μl of a lysis buffer (50 mM HEPES (pH 7.5), 10 mM MgCl2, 1 mM DTT, 5 μg/ml of aprotinin, 5 μg/ml of leupeptin, 0.1 mM NaF, 0.2 mM phenylmethylsulfonyl fluoride (PMSF), and sodium orthovanadate). Centrifuged lysate was purified on a GST-sepharose column. Purity of the proteins was checked by SDS-PAGE followed by western blots using specific antibodies (Santacruz Biotec, USA) to Cdk4 or Cdk2.
GST-retinoblastoma (Rb) (aa 776-928) fusion protein is expressed in the bacteria E. coli and purified by GSH-Sepharose affinity chromatography. The GST-Rb bound to these beads served as the substrate in the assay.
as §5
The Cdk 4 or Cdk 2 enzyme assay was run in 96-well format using Millipore Multiscreen filtration plates. All assay steps took place in a single filter plate (Unifilter plates, Packard, USA). The filtration wells were pre-wet with kinase buffer (100 μl/well) and the solution was then removed by the application of vacuum, with the filter plate on a vacuum manifold and the vacuum on. 50 μl of GST-Rb bound to GSH-Sepharose beads in kinase buffer (0.5 μg GST-Rb/50 μl) was added to each well and vacuum was applied to removed the buffer. A further 25 μl of a reaction mix containing ATP (cold+hot) and phosphatase inhibitors diluted in kinase buffer were added to each well, followed by the addition of test compound (4× final concentration in kinase buffer) or kinase buffer (control) in an additional 25 μl volume. Finally 50 μl (100 ng) of human Cdk-4/D1 or Cdk-2/E enzyme in kinase buffer was added to each well to initiate the reaction. The reaction was incubated for 30 min at 30° C. After the reaction was complete, vacuum was applied and the plate was washed with the wash buffer (TNEN buffer) three times. The filter plate was air-dried and placed in a Multiscreen adapter plate. To each well, 30 μl Packard Microscint-O cocktail was added and the plate was covered with a Top-Seal A film. The plate was counted in a Packard Top Count Scintillation Counter for 10 min. […]

| Structure (SMILES) | IC50 [3] | IC50 [4] | IC50 [7] | IC50 [8] | IC50 [10] | IC50 [12] | IC50 [13] | IC50 [14] | Ratio of IC50 Cdk2/E:Cdk4/D1 [14] | melting point | degree of toxicity HeLa Cervix [1] | degree of toxicity MDAMB-231 Breast [2] | degree of toxicity U-937 Histiocytic lymphoma (monocytes) [5] | degree of toxicity MCF-7 Breast [6] | degree of toxicity PC-3 Prostate [9] | degree of toxicity H460 Lung [11] |
| --- | --- | --- | --- | --- | --- | --- | --- | --- | --- | --- | --- | --- | --- | --- | --- | --- |
| CN1CC[C@@H](c2c(O)cc(O)c3c(=O)cc(-c4ccccc4Br)oc23)[C@@H]1CO [Example 17, (+)-trans-2-(2-Bromo-phenyl)-5,7-dihydroxy-8-(2-hydroxymethyl-1-methyl-pyrrolidin-3-yl)-chromen-4-one] | 100 to 1000 nM | 1000 to 10000 nM | > 10 µM | 500 to 1000 nM | 100 to 1000 nM | 100 nM |  |  |  | 235 to 237 °C | + (30-50% toxic) | NT (not toxic ≦30%) | + (30-50% toxic) | + (30-50% toxic) | NT (not toxic ≦30%) | NT (not toxic ≦30%) |
| COc1cc(OC)c2c(=O)cc(-c3ccccc3Cl)oc2c1[C@@H]1CCN(C)[C@H]1CO (racemic) [Example 7, (±)-trans-2-(2-Chloro-phenyl)-8-(2-hydroxymethyl-1-methyl-pyrrolidin-3-yl)-5,7-dimethoxy-chromen-4-one] |  |  |  |  |  |  |  |  |  | 95 to 97 °C |  |  |  |  |  |  |
| CN1CC[C@@H](c2c(O)cc(O)c3c(=O)cc(-c4ccccc4Cl)oc23)[C@@H]1CO [Example 14A, (+)-trans-2-(2-Chloro-phenyl)-5,7-dihydroxy-8-(2-hydroxymethyl-1-methyl-pyrrolidin-3-yl)-chromen-4-one] | 100 to 500 nM | 500 to 1000 nM | 5 to 10 µM | 500 to 1000 nM | 100 to 1000 nM | 500 to 1000 nM |  |  |  |  | ++ (50-70% toxic) | NT (not toxic ≦30%) | + (30-50% toxic) | NT (not toxic ≦30%) | ++ (50-70% toxic) | NT (not toxic ≦30%) |
| COc1cc(OC)c2c(=O)cc(-c3ccccc3Cl)oc2c1[C@@H]1CCN(C)[C@H]1CO [Example 13, (+)-trans-2-(2-Chloro-phenyl)-8-(2-hydroxymethyl-1-methyl-pyrrolidin-3-yl)-5,7-dimethoxy-chromen-4-one] |  |  |  |  |  |  |  |  |  | 91 to 93 °C |  |  |  |  |  |  |

More lines, main results first:

| IC50 [3] | IC50 [4] | IC50 [7] | IC50 [8] | IC50 [10] | IC50 [12] | IC50 [13] | IC50 [14] | Ratio of IC50 Cdk2/E:Cdk4/D1 [14] | melting point | Structure (SMILES) | degree of toxicity HeLa Cervix [1] | degree of toxicity MDAMB-231 Breast [2] | degree of toxicity U-937 Histiocytic lymphoma (monocytes) [5] | degree of toxicity MCF-7 Breast [6] | degree of toxicity PC-3 Prostate [9] | degree of toxicity H460 Lung [11] |
| --- | --- | --- | --- | --- | --- | --- | --- | --- | --- | --- | --- | --- | --- | --- | --- | --- |
| 100 to 500 nM | 50 to 100 nM | 0.05 µM | 500 nM | 100 nM | 100 nM |  |  |  |  | CN1CC[C@H](c2c(O)cc(O)c3c(=O)cc(-c4ccccc4Cl)oc23)[C@H](O)C1 (relative stereo) [Flavopiridol, cis-{2-(2-Chloro-phenyl)-5,7-dihydroxy-8-(3-hydroxy-1-methyl-piperidin-4-yl)-chromen-4-one hydrochloride}, reference compound] | +++ (above 70% toxic) | ++ (50-70% toxic) | ++ (50-70% toxic) | + (30-50% toxic) | ++ (50-70% toxic) | + (30-50% toxic) |
|  |  |  |  |  |  | 6 µM | 80 nM | 75.0 |  | COc1ccc(Br)c(-c2cc(=O)c3c(O)cc(O)c([C@@H]4CCN(C)[C@H]4CO)c3o2)c1 (single isomer, unassigned) [Example 36 (Compound A), (+)-trans-2-(2-Bromo-5-methoxy-phenyl)-5,7-dihydroxy-8-(2-hydroxymethyl-1-methyl-pyrrolidin-3-yl)-chromen-4-one] |  |  |  |  |  |  |
|  |  |  |  |  |  | 8.75 µM | 280 nM | 31.2 | 242 to 244 °C | CN1CC[C@@H](c2c(O)cc(O)c3c(=O)cc(-c4c(F)cccc4F)oc23)[C@@H]1CO (single isomer, unassigned) [Example 80, (+)-trans-2-(2,6-Difluoro-phenyl)-5,7-dihydroxy-8-(2-hydroxymethyl-1-methyl-pyrrolidin-3-yl)-chromen-4-one] |  |  |  |  |  |  |
|  |  |  |  |  |  |  |  |  | 206 to 208 °C | CN1CC[C@@H](c2c(O)cc(O)c3c(=O)cc(-c4ccccc4F)oc23)[C@@H]1CO [Example 21, (+)-trans-2-(2-Fluoro-phenyl)-5,7-dihydroxy-8-(2-hydroxymethyl-1-methyl-pyrrolidin-3-yl)-chromen-4-one] |  |  |  |  |  |  |
